Reference: publication PMC7284870, “Antimicrobial Peptides from Rat-Tailed Maggots of the Drone Fly Eristalis tenax Show Potent Activity against Multidrug-Resistant Gram-Negative Bacteria” (Microorganisms, 2020)
In brackets after ≈: the same amount, converted by molar mass. Where two headings read alike, the source gives them in different places. No end group written: not given here.

What was measured:
[1] = tested on: Klebsiella pneumoniae DSM 30104; assay type: cell-based
Outline: (§1)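 Broth microdilution in cation-adjusted Mueller–Hinton broth at 37 °C, with 18 h cultures diluted to 5 × 10^5 cells/mL and final peptide concentrations of 1024–0.03125 µg/mL. Growth was scored visually and by OD600. MIC is the lowest concentration with no growth; medium was optionally supplemented with 150 mM NaCl or 1.25 mM CaCl2.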

[2] = tested on: Acinetobacter baumannii ATCC 19606; assay type: cell-based
Outline: as §1

[3] = tested on: Staphylococcus aureus ATCC 25923; assay type: cell-based
Outline: as §1

Escherichia coli D31 = assay type: cell-based
Outline: as §1

[4] = tested on: Pseudomonas aeruginosa ATCC 27853; assay type: cell-based
Outline: as §1

[5] = tested on: Klebsiella oxytoca RKI 52/07; assay type: cell-based
Outline: as §1

E. coli RKI 6A-6 = assay: microbe, parasite or virus in culture; assay type: cell-based, Escherichia coli
Outline: as §1

A. baumannii RKI 19/09 = assay: microbe, parasite or virus in culture; assay type: cell-based, Acinetobacter baumannii
Experimental: The strains that were used in this study (Table 2 and Table S1) were cultivated at 37 °C in cation-adjusted Mueller–Hinton broth (CAMB) in Erlenmeyer flasks, or on the same medium with agar in Petri dishes. Exceptionally, Mycobacterium smegmatis was cultivated at 37 °C in brain heart infusion (BHI) medium that was supplemented with 1% Tween-80 in Erlenmeyer flasks, or on the same medium lacking detergent but with agar in Petri dishes. Strains listed with Robert Koch Institute (RKI) strain numbers are clinical isolates from the RKI strain collection originating from hospitalized patients in Germany. The remaining strains originated from the Sanofi strain collection and they were originally purchased from the American Type Culture Collection or the German Collection of Microorganisms and Cell Cultures. Meropenem/colistin-resistant strains were maintained, as described above, with the appropriate antibiotic added at levels below the minimal inhibitory concentration (MIC).
The MIC values were determined in 384-well microtiter plates with an assay volume of 20 µL. Immediately before each assay, the cultures of test organisms (bacteria grown for 18 h, Candida albicans and M. smegmatis grown for 48 h) were diluted with the appropriate medium to a density of 1 × 10^6 cells/mL (C. albicans), 1 × 10^5 cells/mL (M. smegmatis) or 5 × 10^5 cells per mL (other species). […] We transferred 2-µL aliquots from this dilution series to new 384-well microtiter plates while using a CyBio-Well 384-channel automated pipettor (Analytic Jena, Jena, Germany) and added 18 µL of the diluted suspension of each test species using a Viafill reagent dispenser (Integra), thus reducing the final peptide concentration 10-fold to the range 1024–0.03125 µg/mL. […] The growth of M. smegmatis was measured using the BacTiter-Glo luminescence test system (Promega, Madison, WI, USA). The growth of the other species was determined by visual inspection of the microtiter plate and turbidimetry based on the optical density at 600 nm (OD600). The MIC was defined as the peptide concentration at which no bacterial growth was observed. We supplemented the test medium with either 150 mM NaCl or 1.25 mM CaCl2 to represent monovalent and divalent cations to simulate physiological conditions.

[6] = biological target: human ERG (hERG) potassium channel (Homo sapiens, UniProt Q12809); assay: cell-based
Experimental: The interaction of the peptides with the human ERG (hERG) potassium channel was analyzed using the automated patch-clamp method. Chinese hamster ovary (CHO) hERG Duo cells constitutively expressing hERG (B’SYS) were diluted to 8 × 10^6 cells/mL in Ex-Cell CHO medium (Sigma–Aldrich) containing 25 mM HEPES, 100 U/mL penicillin-streptomycin, and 0.004% soybean trypsin inhibitor. The peptides were diluted from a stock concentration of 10 mM in DMSO to final concentrations of 0.12, 0.37, 1.1, 3.3, 10, and 30 μM (0.5–124 µg/mL for […], 0.51–128 µg/mL for EtCec2-a, 0.49–122 µg/mL for EtCec3-a, 0.8–200 µg/mL for EtDip) in extracellular medium (150 mM NaCl, 4 mM KCl, 2 mM CaCl2, 1 mM MgCl2, 10 mM HEPES, 10 mM glucose) containing 0.06% Pluronic F-68 and 0.3% residual DMSO. The response of hERG to each peptide was assessed while using a QPatch HTX station and QPlates (Sophion/Biolin Scientific, Ballerup, Denmark) by recording the tail current following channel repolarization. Half-maximal inhibitory concentrations (IC50) were determined from a series of six concentrations applied to the cells in ascending order. Terfenadine citrate was used as a positive control and extracellular medium as a negative control.

HepG2 cells = assay: Cytotoxicity (ATP quantification and neutral red uptake)
Experimental: The cytotoxicity of the AMPs was determined in 96-well microtiter plates with an assay volume of 200 µL. The peptides were dissolved in PBS and a 1:2 dilution series in DMEM-F12 medium (supplemented with 1% nonessential amino acids, 1% sodium pyruvate, and 5% heat-inactivated fetal calf serum) was prepared in nine steps to produce test concentrations of 400, 200, 100, […], 12.5, 6.25, 3.13, and 1.56 μM (1655–6.46 µg/mL for EtCec1-a, 1713–6.68 µg/mL for EtCec2-a, 1622–6.33 µg/mL for EtCec3-a, 2661–10.38 µg/mL for EtDip). Stocks of the mycoplasma-free HepG2 cell line HB-8065 (ATCC) stored in liquid nitrogen were seeded at a density of 20,000 cells/well into 96-well microplates in 100 μL DMEM-F12 supplemented as above. After incubation overnight at 37 ± 1 °C in a 5% CO2 atmosphere, 100 μL of the test solution was added per well in six replicates. Ketoconazole was used as a positive control and PBS as a negative control. The plates were incubated for 24 h, as above, and the cell viability was assessed using the luminescent CellTiter-Glo ATP monitoring kit (Promega) to determine the quantity of ATP.
HepG2 cells and peptides were prepared as described above, and cell viability was assessed based on the ability of lysosomes to store the dye neutral red (Sigma–Aldrich, ST. Louis, MO, USA). The cells were incubated for 3 h with a neutral red solution, washed twice, and lysed. After complete lysis, the quantity of neutral red was determined by measuring the absorption at 540 nm while using a Tecan Genios Pro plate reader.

[7] = CAMB + 0.075 µg/mL colistin (Col), n=3
[8] = CAMB adjusted to 150 mM NaCl, n=3
[9] = HepG2, 24 h, cell viability >80%

Chain of human ERG (hERG) potassium channel (Q12809 whole entry): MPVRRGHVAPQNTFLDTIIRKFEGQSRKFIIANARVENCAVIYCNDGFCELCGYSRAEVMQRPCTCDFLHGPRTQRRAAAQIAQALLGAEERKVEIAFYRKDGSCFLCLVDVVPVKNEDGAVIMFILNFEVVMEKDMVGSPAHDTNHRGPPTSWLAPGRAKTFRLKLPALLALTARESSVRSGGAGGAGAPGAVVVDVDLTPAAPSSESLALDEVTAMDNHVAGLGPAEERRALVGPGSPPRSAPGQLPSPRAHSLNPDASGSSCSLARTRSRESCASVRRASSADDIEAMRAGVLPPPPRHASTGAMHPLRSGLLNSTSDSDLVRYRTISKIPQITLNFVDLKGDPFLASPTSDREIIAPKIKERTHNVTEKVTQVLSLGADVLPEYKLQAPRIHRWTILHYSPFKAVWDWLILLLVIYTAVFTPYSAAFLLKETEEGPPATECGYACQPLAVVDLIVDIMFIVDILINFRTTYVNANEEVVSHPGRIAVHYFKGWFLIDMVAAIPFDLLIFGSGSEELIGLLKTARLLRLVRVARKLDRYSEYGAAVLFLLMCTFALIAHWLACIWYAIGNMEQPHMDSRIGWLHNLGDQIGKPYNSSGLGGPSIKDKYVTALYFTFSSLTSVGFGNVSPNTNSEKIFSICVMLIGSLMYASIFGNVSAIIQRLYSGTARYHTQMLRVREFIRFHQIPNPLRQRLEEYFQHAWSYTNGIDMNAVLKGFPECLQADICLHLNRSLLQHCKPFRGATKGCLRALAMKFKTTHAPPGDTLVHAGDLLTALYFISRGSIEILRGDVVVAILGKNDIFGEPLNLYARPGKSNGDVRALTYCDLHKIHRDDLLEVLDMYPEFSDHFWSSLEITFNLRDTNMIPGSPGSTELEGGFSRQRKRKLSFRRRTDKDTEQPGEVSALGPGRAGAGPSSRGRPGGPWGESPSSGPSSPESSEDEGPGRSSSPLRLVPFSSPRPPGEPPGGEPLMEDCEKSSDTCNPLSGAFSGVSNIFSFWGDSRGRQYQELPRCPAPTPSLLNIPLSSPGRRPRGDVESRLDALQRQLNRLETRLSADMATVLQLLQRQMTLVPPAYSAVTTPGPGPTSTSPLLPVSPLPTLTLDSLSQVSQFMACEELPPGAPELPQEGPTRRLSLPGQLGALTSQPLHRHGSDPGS

Molecule | MIC [1, 7] [µg/mL] | MIC ([1]; CAMB, 18 h, 37 °C, n = 4) [µg/mL] | MIC [2, 7] [µg/mL] | MIC ([2]; CAMB, 18 h, 37 °C, n = 4) [µg/mL] | MIC ([3]; CAMB, 18 h, 37 °C, n = 4) [µg/mL] | MIC (Escherichia coli D31; CAMB, 18 h, 37 °C, n = 4) [µg/mL] | MIC ([4]; CAMB, 18 h, 37 °C, n = 4) [µg/mL] | MIC [5, 7] [µg/mL] | MIC ([5]; Table 5, CAMB, n=3) [µg/mL] | MIC (A. baumannii RKI 19/09; [7]) [µg/mL] | IC50 [6] [µM] | NOEC (HepG2 cells; [9]) [µg/mL] | also measured
GWLRDFGKRIERTGQNIRDATIQTIGIAQEAANVAATLK-NH2 [EtCec2-NH2] | 2 | 16 | 8 | 8 | >1024 | 4 | >1024 | 2 | 32 | 8 | > 29.9 | 535 | MIC [1, 8]: 32 µg/mL; MIC ([1]; Table 4, CAMB, n=3): 16 µg/mL; MIC [2, 8]: 8 µg/mL; MIC ([2]; Table 4, CAMB, n=3): 8 µg/mL; MIC (E. coli RKI 6A-6; Table 4, CAMB, n=3): 64 µg/mL; MIC (A. baumannii RKI 19/09; [8]): 16 µg/mL; MIC (A. baumannii RKI 19/09; Table 4, CAMB, n=3): 8 µg/mL
C[C@@H](O)[C@H]1C(=O)N2C(C(=O)O)=C(S[C@@H]3CN[C@H](C(=O)N(C)C)C3)[C@H](C)[C@H]12 [MEM, meropenem] | – | – | – | – | – | – | – | – | – | – | – | – | MIC ([5]; Table S1, RKI 52/07): 32 µg/mL (≈ 83.4 µM); MIC (E. coli RKI 6A-6; Escherichia coli, RKI6A6, Table S1, RKI 6A-6, read-out: MIC): ≤ 0.5 µg/mL; MIC (A. baumannii RKI 19/09; Acinetobacter baumannii, RKI19/09, Table S1, RKI 19/09, read-out: MIC): > 64 µg/mL
QFNMQGGGSPRQGFDVNANARFPIWQSQNARNSVHGTASYAQHLGGPYGNSRPNFGGGLQFT [EtDip] | 4 | >1024 | >1024 | >1024 | >1024 | >1024 | >1024 | 4 | >1024 | 1024 | – | > 1330 | MIC ([1]; Table 5, CAMB, n=3): >1024 µg/mL; MIC ([2]; Table 5, CAMB, n=3): >1024 µg/mL; MIC (A. baumannii RKI 19/09; Table 5, CAMB, n=3): >1024 µg/mL; IC50 hERG ([6]; CHO hERG Duo cells, QPatch, tail current, six concentrations): > 200 µg/mL
GFLKKIGKKLEGAVQRTRDATIQTIAVAQAAANVAATAKQ-NH2 [EtCec1-NH2] | – | – | – | – | – | – | – | – | – | – | > 30 | – | MIC ([1]; DSM 30104, 18 h): 4 µg/mL; MIC ([2]; ATCC 19606, 18 h): 8 µg/mL; MIC ([3]; ATCC 25923, 18 h): >1024 µg/mL; MIC (Escherichia coli D31; D31, 18 h): 4 µg/mL; MIC ([4]; ATCC 27853, 18 h): 32 µg/mL; MIC (A. baumannii RKI 19/09; RKI 19/09, 18 h): 4 µg/mL; NOEC (HepG2 cells): greater than 1655 µg/mL
